According to patent US4740465A, “Heat-resistant sarcosine oxidase N and process for producing the same” (Noda Institute for Scientific Research, priority 1985, dated 1988):

Experiments:
[1] = target: T1, heat-resistant sarcosine oxidase N from Bacillus sp. NS-129 (present enzyme) (Bacillus sp., UniProt P23342); experiment: Inhibition of heat-resistant sarcosine oxidase N; type: biochemical; details: inhibitor at 2 mM
T1 construct: the present enzyme is ordinarily present within the cells; made in house; host or cells: Bacillus sp; NS-129 (FERM BP-671), the native producer; purified from the cells
T1 sequence (P23342 1-387): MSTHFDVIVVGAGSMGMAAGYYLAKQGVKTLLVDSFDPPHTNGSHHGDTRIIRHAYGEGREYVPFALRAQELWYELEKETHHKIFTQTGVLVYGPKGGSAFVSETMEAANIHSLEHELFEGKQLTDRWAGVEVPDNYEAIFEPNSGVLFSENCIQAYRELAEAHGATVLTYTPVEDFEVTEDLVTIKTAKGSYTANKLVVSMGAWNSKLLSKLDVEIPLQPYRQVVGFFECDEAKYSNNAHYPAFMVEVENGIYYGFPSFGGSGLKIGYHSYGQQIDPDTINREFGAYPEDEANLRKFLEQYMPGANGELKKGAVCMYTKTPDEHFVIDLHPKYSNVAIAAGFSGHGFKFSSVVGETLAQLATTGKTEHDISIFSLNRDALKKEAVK

[2] = target: Known enzyme*2: the sarcosine oxidase described in J. Biochem. 89, 599 (1981) JAPAN (Corynebacterium sp., UniProt Q50LF2); details: read-out: Km value for sarcosine; 37° C., pH 7.7; Table 1, known enzyme*2; cited from earlier work
[3] = substrate: CNCC(=O)O; experiment: Km determination of heat-resistant sarcosine oxidase N (present enzyme); type: biochemical, Bacillus sp. NS-129; details: other: 37° C., pH 7.7 (phosphate buffer solution)
Procedure: First method: Sarcosine is oxidatively decomposed using the present enzyme and the resulting formaldehyde is determined by colorimetry.
To 0.3 ml of a 0.2 M sarcosine solution were added 0.1 ml of a 0.3 M phosphate buffer solution (pH 7.7) and 0.1 ml of a solution containing an appropriate concentration of the present enzyme. They were subjected to reaction at 37° C. for 10 minutes. The reaction was stopped by addition of 0.5 ml of a 1.0 N acetic acid solution. Thereto was added 3 ml of a color reagent (pH 6.5) containing 0.02% (V/V) of acetylacetone and 10% (W/V) of diammonium hydrogen phosphate. The resulting mixture was subjected to color development at 37° C. for 40 minutes. The absorbance of the resulting color at 410 nm was measured using a photoelectric photometer.
Second method: Sarcosine is oxidatively decomposed using the present enzyme and the resulting hydrogen peroxide (H2 O2) is determined by colorimetry.
0.1 ml of a solution containing an appropriate concentration of the present enzyme was added to a mixture of 0.5 ml of a 0.2 M sarcosine solution, 0.1 ml of a 0.3 M phosphate buffer solution (pH 7.7), 0.1 ml of a 0.2% 2,4-dichlorophenol sulfonate solution, 0.1 ml of a 70 mg/100 ml 4-aminoantipyrine solution and 0.1 ml of a 70 units/ml peroxidase solution. […] The absorbance of the resulting color at 510 nm was measured using a photoelectric photometer.

In the case of `CCN1C(=O)C=CC1=O` [N-ethylmaleimide], the “Inhibition of the enzyme” value [1] is reported as “strongly inhibited”.

With `O=C(O)CI` [monoiodoacetic acid] the “Inhibition of the enzyme” value [1] was “strongly inhibited”.

For `CNCC(=O)O` [sarcosine, N-methylglycine], the Km [2] is listed as 3.4 mM.

B1: heat-resistant sarcosine oxidase N from Bacillus sp. NS-129 (present enzyme) (Bacillus sp. NS-129) (protein)
chain: T1 sequence (P23342 1-387)
notes: the present enzyme is ordinarily present within the cells; made in house; host or cells: Bacillus sp; NS-129 (FERM BP-671), the native producer; purified from the cells
B1 gave a Km [3] of 4.7 mM.
